Earlier results as cited in patent US20020054921A1, “Use of phyllanthus components for the treatment or prophylaxis of infections triggered by flavivirdae” (priority 2000, published 2002).

Assays:
[1] = molecular target: T1, cAMP-dependent protein kinase of the rat liver (Rattus norvegicus, UniProt P27791)
T1 construct: the cAMP-dependent protein kinase of the rat liver; host or cells: rat liver

[2] = system: Ca^2+-dependent protein kinase of the wheat embryo; conditions: wheat embryo Ca^2+-dependent protein kinase
[3] = system: Ca^2+ and phospholipid-dependent protein kinase C (PKC) of the rat brain
Bacillus subtilis = conditions: 0.1 ml added; extract 50 mg/ml, streptomycin 10 mg/ml
Staphylococcus aureus = conditions: 0.1 ml added; extract 50 mg/ml, streptomycin 10 mg/ml

Molecule | inhibition of protein kinase [1] | inhibition of protein kinase [2] | inhibition of protein kinase [3] | inhibition zone (Bacillus subtilis) | inhibition zone (Staphylococcus aureus)
O=C1OC2C3OC(=O)C4=CC(=O)C5(O)Oc6c(O)c(O)cc(c6C4C5(O)O)C(=O)OC2C(OC(=O)c2cc(O)c(O)c(O)c2)OC3COC(=O)c2cc(O)c(O)c3c2C2C1=CC(=O)C(O)(O3)C2(O)O (centres unmarked) [amariin] | most effective | most effective | most effective |  | 
[H]/N=C(/N)N[C@H]1[C@H](O)[C@@H](O)[C@H](O[C@@H]2O[C@@H](C)[C@](O)(C=O)[C@H]2O[C@@H]2O[C@@H](CO)[C@H](O)[C@@H](O)[C@@H]2NC)[C@@H](N/C(N)=N\[H])[C@@H]1O [streptomycin] |  |  |  | 35 mm | 35 mm
geraiin | most effective | most effective | most effective |  | 
